Source: PubChem BioAssay AID248 (DTP/NCI, 2004)
Values joined by “and” are separate entries in the source; they are usually repeats but may differ in a detail not shown here. Identical values can stand only once. Toxic doses and inconclusive results are not listed. No stated cut-off is given here; in the data, active means T/C of 150% or more; inactive means T/C below 125%.

System: L1210 leukemia ip in BDF1 mice, survival T/C
Assay: NCI In Vivo Anticancer Drug Screen. Data for tumor model L1210 Leukemia (intraperitoneal) in B6D2F1 (BDF1) mice
Conditions: endpoint: mean survival time, higher = longer survival
Outline: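 Each compound was tested against a transplantable tumor grown in mice. The endpoint was survival, with treated animals benchmarked against vehicle controls as a simple ratio.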

[1] = dose: 25.0 mg/kg/injection, schedule: Q01DX009 (ip), vehicle: Klucel (hydroxypropylcellulose) (HPC)
[2] = dose: 50.0 mg/kg/injection, schedule: Q01DX009 (ip), vehicle: Klucel (hydroxypropylcellulose) (HPC)
[3] = dose: 200.0 mg/kg/injection, schedule: Q01DX001 (ip), vehicle: carboxymethylcellulose (CMC)
[4] = dose: 400.0 mg/kg/injection, schedule: Q01DX001 (ip), vehicle: carboxymethylcellulose (CMC)
[5] = dose: 25.0 mg/kg/injection, schedule: Q01DX009 (ip), vehicle: saline
[6] = dose: 50.0 mg/kg/injection, schedule: Q01DX009 (ip), vehicle: saline
[7] = dose: 100.0 mg/kg/injection, schedule: Q04DX003 (ip), vehicle: saline
[8] = dose: 100.0 mg/kg/injection, schedule: Q04DX003 (ip), vehicle: Klucel (hydroxypropylcellulose) (HPC)
[9] = dose: 200.0 mg/kg/injection, schedule: Q04DX003 (ip), vehicle: Klucel (hydroxypropylcellulose) (HPC)
[10] = dose: 400.0 mg/kg/injection, schedule: Q04DX003 (ip), vehicle: Klucel (hydroxypropylcellulose) (HPC)
[11] = dose: 50.0 mg/kg/injection, schedule: Q04DX002 (ip), vehicle: Klucel (hydroxypropylcellulose) (HPC)
[12] = dose: 100.0 mg/kg/injection, schedule: Q01DX001 (ip), vehicle: Klucel (hydroxypropylcellulose) (HPC)
[13] = dose: 200.0 mg/kg/injection, schedule: Q01DX001 (ip), vehicle: Klucel (hydroxypropylcellulose) (HPC)
[14] = dose: 100.0 mg/kg/injection, schedule: Q01DX009 (ip), vehicle: Klucel (hydroxypropylcellulose) (HPC)
[15] = dose: 200.0 mg/kg/injection, schedule: Q01DX009 (ip), vehicle: Klucel (hydroxypropylcellulose) (HPC)
[16] = dose: 400.0 mg/kg/injection, schedule: Q01DX009 (ip), vehicle: Klucel (hydroxypropylcellulose) (HPC)
[17] = dose: 100.0 mg/kg/injection, schedule: Q04DX002 (ip), vehicle: Klucel (hydroxypropylcellulose) (HPC)
[18] = dose: 200.0 mg/kg/injection, schedule: Q04DX002 (ip), vehicle: Klucel (hydroxypropylcellulose) (HPC)

Measured: T/C

CC12C=CC(=O)C=C1CCC1C2C(O)CC2(C)C1CCC2(O)C(=O)COC(=O)CCCc1ccc(N(CCCl)CCCl)cc1 (configuration not stated)
inactive: dose: 12.5 mg/kg/injection, schedule: Q01DX009 (ip), vehicle: Klucel (hydroxypropylcellulose) (HPC) 116 % of control | dose: 12.5 mg/kg/injection, schedule: Q04DX003 (ip), vehicle: Klucel (hydroxypropylcellulose) (HPC) 97 % of control | dose: 15.0 mg/kg/injection, schedule: Q01DX009 (ip), vehicle: saline with Tween-80 107 % of control | [1] 122 % of control | dose: 25.0 mg/kg/injection, schedule: Q04DX003 (ip), vehicle: Klucel (hydroxypropylcellulose) (HPC) 110 % of control | dose: 30.0 mg/kg/injection, schedule: Q01DX009 (ip), vehicle: saline with Tween-80 114 % of control | [2] 124 % of control | dose: 50.0 mg/kg/injection, schedule: Q04DX003 (ip), vehicle: Klucel (hydroxypropylcellulose) (HPC) 109 % of control | dose: 60.0 mg/kg/injection, schedule: Q01DX009 (ip), vehicle: saline with Tween-80 108 % of control | dose: 75.0 mg/kg/injection, schedule: Q01DX001 (sc), vehicle: steriod suspending solution 103 % of control | dose: 150.0 mg/kg/injection, schedule: Q01DX001 (sc), vehicle: steriod suspending solution 111 % of control | dose: 300.0 mg/kg/injection, schedule: Q01DX001 (sc), vehicle: steriod suspending solution 108 % of control

CC1CC=CC(N2C(=O)c3ccccc3C2=O)C1 (configuration not stated)
inactive: [3] 91 % of control | [4] 93 % of control

[N-]=[N+]=Nc1ccc(Cl)cc1C(=O)c1ccccc1
inactive: [5] 120 % of control | dose: 25.0 mg/kg/injection, schedule: Q04DX003 (ip), vehicle: saline 98 % of control | [6] 109 % of control | dose: 50.0 mg/kg/injection, schedule: Q04DX003 (ip), vehicle: saline 104 % of control | dose: 100.0 mg/kg/injection, schedule: Q01DX009 (ip), vehicle: saline 111 % of control | [7] 102 % of control and 113 % of control

C=CCOc1cc(C)ccc1C
inactive: dose: 100.0 mg/kg/injection, schedule: Q01DX001 (ip), vehicle: carboxymethylcellulose (CMC) 98 % of control | [3] 95 % of control | [4] 98 % of control

O=C(O)CCC(=O)Nc1ccccc1
inactive: [8] 95 % of control | [9] 97 % of control | [10] 101 % of control

CC(C)C(=O)Nc1cccc(Cl)c1
inactive: dose: 100.0 mg/kg/injection, schedule: Q01DX009 (ip), vehicle: saline with Tween-80 95 % of control | dose: 200.0 mg/kg/injection, schedule: Q01DX009 (ip), vehicle: saline with Tween-80 95 % of control | dose: 400.0 mg/kg/injection, schedule: Q01DX009 (ip), vehicle: saline with Tween-80 101 % of control

CC12CCC=CC1=CC(=O)CC2 (configuration not stated)
inactive: dose: 75.0 mg/kg/injection, schedule: Q01DX001 (ip), vehicle: other 98 % of control | dose: 150.0 mg/kg/injection, schedule: Q01DX001 (ip), vehicle: other 106 % of control | dose: 300.0 mg/kg/injection, schedule: Q01DX001 (ip), vehicle: other 103 % of control

CCN(CC)Cc1cc(NC(C)=O)ccc1O
inactive: [7] 102 % of control | dose: 200.0 mg/kg/injection, schedule: Q04DX003 (ip), vehicle: saline 97 % of control | dose: 400.0 mg/kg/injection, schedule: Q04DX003 (ip), vehicle: saline 113 % of control

O=C1NC(=O)C2C3OC(C(Cl)C3Cl)C12 (configuration not stated)
inactive: dose: 12.5 mg/kg/injection, schedule: Q04DX002 (ip), vehicle: Klucel (hydroxypropylcellulose) (HPC) 98 % of control | [1] 97 % of control | dose: 25.0 mg/kg/injection, schedule: Q04DX002 (ip), vehicle: Klucel (hydroxypropylcellulose) (HPC) 102 % of control | [2] 107 % of control | [11] 98 % of control | dose: 75.0 mg/kg/injection, schedule: Q01DX009 (ip), vehicle: Klucel (hydroxypropylcellulose) (HPC) 96 % of control | dose: 75.0 mg/kg/injection, schedule: Q01DX009 (ip), vehicle: carboxymethylcellulose (CMC) 100 % of control

CC(=O)OCCc1ccc(Cl)cc1
inactive: dose: 100.0 mg/kg/injection, schedule: Q04DX002 (ip), vehicle: saline with Tween-80 93 % of control | dose: 200.0 mg/kg/injection, schedule: Q04DX002 (ip), vehicle: saline with Tween-80 96 % of control | dose: 400.0 mg/kg/injection, schedule: Q04DX002 (ip), vehicle: saline with Tween-80 100 % of control

Cc1cc(N(CCCCl)CCCCl)ccc1C=Nc1cc(Br)c(O)c(Br)c1
inactive: [8] 94 % of control | [9] 95 % of control | [10] 96 % of control

C(=C\n1ccnc1)/c1ccccc1
inactive: dose: 100.0 mg/kg/injection, schedule: Q04DX003 (ip), vehicle: gum acacia 97 % of control | dose: 200.0 mg/kg/injection, schedule: Q04DX003 (ip), vehicle: gum acacia 87 % of control

CCCCNC(=S)S
inactive: [8] 95 % of control | [9] 98 % of control | [10] 104 % of control

O=c1[nH]c(Cc2ccc([N+](=O)[O-])cc2)c(Br)c(=O)[nH]1
inactive: dose: 50.0 mg/kg/injection, schedule: Q01DX001 (ip), vehicle: Klucel (hydroxypropylcellulose) (HPC) 103 % of control | [12] 92 % of control | [13] 92 % of control

Cc1[nH]nc2c(=O)[nH]c3ccccc3c12
inactive: dose: 18.75 mg/kg/injection, schedule: Q01DX001 (ip), vehicle: Klucel (hydroxypropylcellulose) (HPC) 89 % of control | dose: 37.5 mg/kg/injection, schedule: Q01DX001 (ip), vehicle: Klucel (hydroxypropylcellulose) (HPC) 86 % of control

CC(=O)Nc1cccc(OC(=O)Nc2ccccc2F)c1
inactive: [14] 91 % of control | [15] 101 % of control | [16] 112 % of control

O=c1[nH]cccc1CC(O)(c1ccccc1)c1ccccc1
inactive: dose: 100.0 mg/kg/injection, schedule: Q01DX001 (ip), vehicle: saline 101 % of control | dose: 200.0 mg/kg/injection, schedule: Q01DX001 (ip), vehicle: saline 103 % of control | dose: 400.0 mg/kg/injection, schedule: Q01DX001 (ip), vehicle: saline 100 % of control

Cc1ccc(C)c(OC(=O)Nc2cccc(C(F)(F)F)c2)c1
inactive: [12] 104 % of control | [14] 93 % of control and 110 % of control | [17] 105 % of control | [8] 92 % of control | [13] 98 % of control | [15] 96 % of control and 109 % of control | [18] 99 % of control and 115 % of control | [9] 97 % of control | dose: 400.0 mg/kg/injection, schedule: Q01DX001 (ip), vehicle: Klucel (hydroxypropylcellulose) (HPC) 100 % of control | [16] 101 % of control and 86 % of control | dose: 400.0 mg/kg/injection, schedule: Q04DX002 (ip), vehicle: Klucel (hydroxypropylcellulose) (HPC) 101 % of control and 105 % of control | [10] 103 % of control

CCOC(=O)C1CC2(SCCS2)C(C(=O)O)CC12SCCS2 (configuration not stated)
inactive: dose: 100.0 mg/kg/injection, schedule: Q04DX003 (ip), vehicle: other 103 % of control | dose: 200.0 mg/kg/injection, schedule: Q04DX003 (ip), vehicle: other 92 % of control | dose: 400.0 mg/kg/injection, schedule: Q04DX003 (ip), vehicle: other 97 % of control

Cc1cccc(C)c1OCC1=NCCN1
inactive: dose: 12.0 mg/kg/injection, schedule: Q01DX009 (ip), vehicle: saline 105 % of control | [5] 111 % of control | [6] 108 % of control

NC(=O)C(Cl)CCl (configuration not stated)
inactive: [11] 104 % of control | [17] 101 % of control | [18] 104 % of control

COc1ccc(S(=O)(=O)F)cc1NC(=O)CCc1ccc(N2C(N)=NC(N)=NC2(C)C)cc1
inactive: dose: 100.0 mg/kg/injection, schedule: Q01DX001 (ip), vehicle: gum acacia 115 % of control | dose: 200.0 mg/kg/injection, schedule: Q01DX001 (ip), vehicle: gum acacia 101 % of control
